Article PMC11982978, “Cancer hotspot mutations rewire ERK2 specificity by selective exclusion of docking interactions” (The Journal of Biological Chemistry, 2025)
“And” between values parts separate entries of the source, which are not always exact repeats. Equal entries are not always repeated.

What was measured:
[1] = biological target: T1, ERK2 WT (Mus musculus, UniProt P63085); assay: Competitive peptide kinase assay (D-peptide inhibition), ERK2 WT; assay type: biochemical; details: Table 2, 5 μM D-site dependent reporter peptide, 10 nM ERK2, 10 μM ATP, pH 7.4, fluorescence, mean of three independent replicates
T1 construct: His6; made in house; host or cells: E. coli BL21(DE3), co-expressed with GST-MEK1ΔN3
Experimental: We determined relative binding affinities for D-peptides from their potency as competitive inhibitors of WT or mutant ERK2 activity on a D-site-dependent reporter substrate peptide (Table S1, Fig. 3A, S3).
Competitive peptide kinase assays were performed with a D-site dependent MAPK reporter substrate peptide (AssayQuant Technologies Inc, #AQT0376) as we reported previously ([15]). Briefly, 5 μM of reporter peptide was mixed with various concentrations of D-peptides in reaction buffer (54 mM HEPES [pH 7.4], 1.2 mM DTT, 0.01% Brij-35, 1% glycerol, 0.2 mg/ml BSA, and 10 mM MgCl2). […] Phosphorylation of the reporter peptide was measured by fluorescence (λex 360 nm, λem 485 nm) in 90 s intervals over 21 min in a Spectra M5 plate reader. Rates were calculated from the linear portion of the reaction progress curve, and data were normalized to maximum (samples lacking competitor peptide) and minimum (control reactions lacking kinase) values. Normalized rates were plotted against D-peptide concentration and fitted into a sigmoidal dose-response curve to determine the IC50 values using GraphPad Prism (Version 9.3.0).

[2] = system: WT ERK2; assay: Y2H D-site library screen, WT ERK2; assay type: cell-based, rat; parameters: key: ES = slope of ln(Ft/F0) vs number of yeast population doublings; details: mutant ES is the combined average ES from the D319N and E320K screens
Text: (§1) To examine how cancer-associated CD site mutations affect the scope of ERK2 docking interactions, we adopted a Y2H strategy that we previously applied to define the D-site interactome of WT ERK2 ([15]). This system reports on interactions between ERK2 and a fragment of its substrate ELK1 that harbors a docking site essential for binding (Fig. 1C). The system thus evaluates the binding of potential sequences by substituting them for the native ELK1 docking site. We transformed Y2H strains with a bait plasmid expressing the Gal4 DNA-binding domain (DBD) fused to WT or CD mutant forms of rat ERK2 (R133K, D319N or E320K, equivalent respectively to human R135K, D321N and E322K), along with a prey plasmid expressing Gal4 activation domain (AD) fused to the ELK1 fragment harboring various docking site sequences. We then assayed these strains for growth on solid media under non-selective (+His) and selective conditions (−His) to detect interactions (Fig. 1D).
(§2) We previously used the Y2H system to screen WT ERK2 against a pooled library of 11,756 ELK1 variants incorporating potential docking sites from the human proteome ([15]). To identify interacting sequences either gained or lost upon ERK2 CD site mutation, we screened the same library against ERK2^D319N and ERK2^E320K. Yeast expressing ERK2 mutant bait plasmids were transformed with the ELK1 library pool and subjected to competitive growth under selective (−His) and non-selective conditions (+His) in parallel. Cultures were sampled periodically over ∼7 population doublings. The DNA sequence encoding the variable docking site region was PCR amplified and analyzed by next-generation sequencing (Fig. 2A, Dataset S1). The change in sequence abundance over time was fitted to an exponential function to assign an enrichment score (ES) to each docking site, where a higher ES indicates a greater increase in sequence abundance as the population grows. A significant enrichment of docking site sequences was observed only under selective conditions (Figs. 2B, S1). For each mutant, we observed generally good reproducibility across three independently conducted screens albeit with some sequences enriched in only a single replicate (Fig. S2, A and B). Average ES scores for the E320K and D319N mutant screens were better correlated with each other (R = 0.83) than were average ES scores for either mutant compared to WT ERK2 (R = 0.67 for WT versus D319N, R = 0.63 for WT versus E320K) (Fig. S2C).
(§3) To compare sequences selected by CD mutants with those selected by WT ERK2, we defined those sequences with an ES equal to or higher than three standard deviations from the mean (Z > 3) as hits. Using this cutoff, we obtained 121, 127, and 153 hits sequences from the WT, D319N, and E320K screens, respectively (Fig. 2C, Dataset S2).
(§4) Yeast harboring pGBT9-ERK2^E320K or pGBT9-ERK2^D319N were transformed with the pGADGH-ELK1 D-site library plasmid pool. Transformants (10–40 colonies per library component) were suspended in SD-Leu-Trp media, diluted to an OD600 of 0.1, and cultured in a shaking incubator at 30 °C to an OD600 of 1.0. The resulting culture was used to initiate a competitive selection screen. Cell growth, sample collection and data analysis were performed exactly as described previously for WT ERK2 ([15]). The frequency (F) of each D-site sequence at a given time point (t) was calculated by dividing the number of reads by the total read count for all sequences. For each sequence, a plot of ln(Ft/F0) as a function of the number of yeast population doublings was fit to a line, and the enrichment score (ES) for that sequence was defined as the slope of this line. Illumina sequencing reads, calculated ES, and Z scores for each screen are provided in Dataset S1.

[3] = system: WT ERK2; details: selective conditions (-His); hits Z > 3; average of three screens; cited from earlier work
Text: Supplement mmc2.xlsx, sheet "WT Hits" | column: Z-score

[4] = system: ERK2 E320K; assay: Y2H D-site library screen, ERK2 E320K; assay type: cell-based, rat; parameters: key to ES, +His / ES, -His: ES = slope of ln(Ft/F0) vs number of yeast population doublings
Text: as §1, §2, §3, §4

[5] = system: ERK2 D319N; assay: Y2H D-site library screen, ERK2 D319N; assay type: cell-based, rat; parameters: key to ES, +His / ES, -His: ES = slope of ln(Ft/F0) vs number of yeast population doublings
Text: as §1, §2, §3, §4

[6] = Average of 3 Replicate Experiments, non-selective
[7] = Average of 3 Replicate Experiments, selective
[8] = Average of 3 Replicate Screens, non-selective
[9] = Average of 3 Replicate Screens, selective

T1 sequence (P63085 whole entry): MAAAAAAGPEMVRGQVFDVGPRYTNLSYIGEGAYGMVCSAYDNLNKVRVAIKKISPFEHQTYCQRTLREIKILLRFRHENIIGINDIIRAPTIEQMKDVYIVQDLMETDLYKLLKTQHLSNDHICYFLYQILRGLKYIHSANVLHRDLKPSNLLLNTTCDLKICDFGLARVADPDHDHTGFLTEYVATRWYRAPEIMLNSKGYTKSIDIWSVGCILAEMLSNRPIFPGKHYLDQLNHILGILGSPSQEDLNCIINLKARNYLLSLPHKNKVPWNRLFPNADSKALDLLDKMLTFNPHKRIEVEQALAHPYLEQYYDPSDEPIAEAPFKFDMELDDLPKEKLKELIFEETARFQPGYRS

With CC[C@H](C)[C@H](NC(=O)[C@H](C)NC(=O)[C@@H](N)Cc1ccc(O)cc1)C(=O)N[C@@H](CCCNC(=N)N)C(=O)N[C@@H](C)C(=O)N[C@@H](CCCNC(=N)N)C(=O)N[C@@H](CCCNC(=N)N)C(=O)N[C@@H](CCC(N)=O)C(=O)N[C@@H](CC(C)C)C(=O)N1CCC[C@H]1C(=O)N[C@@H](CCCNC(=N)N)C(=O)N[C@@H](CC(C)C)C(=O)N[C@@H](C)C(=O)N[C@H](C(=O)N[C@@H](CO)C(=O)N[C@@H](CC(=O)O)C(=O)O)C(C)C [ISG20 peptide G6Q] the IC50 [1] was 41 µM.
For CC(C)C[C@H](NC(=O)[C@H](CCCNC(=N)N)NC(=O)[C@@H]1CCCN1C(=O)[C@H](CC(C)C)NC(=O)CNC(=O)[C@H](CCCNC(=N)N)NC(=O)[C@H](CCCNC(=N)N)NC(=O)[C@H](C)NC(=O)[C@H](CCCNC(=N)N)NC(=O)[C@H](CC(N)=O)NC(=O)[C@H](C)NC(=O)[C@@H](N)Cc1ccc(O)cc1)C(=O)N[C@@H](C)C(=O)N[C@H](C(=O)N[C@@H](CO)C(=O)N[C@@H](CC(=O)O)C(=O)O)C(C)C [ISG20 peptide I1N], the IC50 [1] was 190 µM.
Work on CC[C@H](C)[C@H](NC(=O)[C@H](CCCNC(=N)N)NC(=O)[C@H](C)NC(=O)[C@@H](N)Cc1ccc(O)cc1)C(=O)N[C@@H](C)C(=O)N[C@@H](CCCNC(=N)N)C(=O)N[C@@H](CCCNC(=N)N)C(=O)NCC(=O)N[C@@H](CC(C)C)C(=O)N1CCC[C@H]1C(=O)N[C@@H](CCCNC(=N)N)C(=O)N[C@@H](CC(C)C)C(=O)N[C@@H](C)C(=O)N[C@H](C(=O)N[C@@H](CO)C(=O)N[C@@H](CC(=O)O)C(=O)O)C(C)C [ISG20 peptide I1R/R2I] yielded an IC50 [1] of 200 µM.
For “CLSWKRMAGIFFLP [GLB1L3, D-site 14-mer in ELK1 Y2H prey]”, the “WT ES - mutant ES” value [2] is given as 0.781 and the “Z-score (ES) of hit sequences, WT ERK2 Y2H screen” value (“Z-score (ES) of hit sequences” below) [3] is given as 14.12.
In the case of “GSRCARIFRLVLQK [POLR3C, D-site 14-mer in ELK1 Y2H prey]”, the “WT ES - mutant ES” value [2] is listed as 0.285 and the “Z-score (ES) of hit sequences” value [3] is listed as 6.39.
With “GTRQVKNKGVIVKK [MEIKIN, D-site 14-mer in ELK1 Y2H prey]” the “ES, +His” value [4, 6] was -0.01644, the “Z-Score, +His” value [4, 6] was -0.6905 and the “ES, -His” value [4, 7] was -0.1045. For the same compound, the “Z-Score, -His” value [4, 7] was 0.2622, the “ES, +His” value ([4]; Experiment 1, non-selective) was 0.02832 and the “ES, -His” value ([4]; Experiment 1, selective) was -0.1559. For the same compound, the “ES, +His” value ([4]; Experiment 2, non-selective) was -0.03889, the “ES, -His” value ([4]; Experiment 2, selective) was -0.03551 and the “ES, +His” value ([4]; Experiment 3, non-selective) was -0.03876. The “ES, -His” value ([4]; Experiment 3, selective) was -0.1222, the “ES, +His” value [5, 8] was -0.02174 and the “Z-Score, +His” value [5, 8] was -0.8853. For the same compound, the “ES, -His” value [5, 9] was -0.1312, the “Z-Score, -His” value [5, 9] was -0.1438 and the “ES, +His” value ([5]; Experiment 1, non-selective) was -0.02593. The “ES, -His” value ([5]; Experiment 1, selective) was -0.1282, the “ES, +His” value ([5]; Experiment 2, non-selective) was -0.03529 and the “ES, -His” value ([5]; Experiment 2, selective) was -0.1336. For the same compound, the “ES, +His” value ([5]; Experiment 3, non-selective) was -0.004005 and the “ES, -His” value ([5]; Experiment 3, selective) was -0.1318.
In the case of “HLSRHKIIHIGIHT [ZNF493, D-site 14-mer in ELK1 Y2H prey]”, the “WT ES - mutant ES” value [2] is listed as 0.221 and the “Z-score (ES) of hit sequences” value [3] is listed as 5.90.
For “ILLRRSLEAIELGL [KLC2, D-site 14-mer in ELK1 Y2H prey]”, the “WT ES - mutant ES” value [2] is given as 0.282 and the “Z-score (ES) of hit sequences” value [3] is given as 5.90.
For “IRARRGLPRLAVSD [ISG20, D-site 14-mer in ELK1 Y2H prey]”, the “WT ES - mutant ES” value [2] is listed as 0.761 and the “Z-score (ES) of hit sequences” value [3] is listed as 14.42.
In the case of “LWTRRRSERIFLHD [TNRC18, D-site 14-mer in ELK1 Y2H prey]”, the “WT ES - mutant ES” value [2] is listed as 0.332 and the “Z-score (ES) of hit sequences” value [3] is listed as 7.78.
In the case of “LYKRRKESILTIQK [ASPM, D-site 14-mer, start residue 1508, in ELK1 Y2H prey]”, the “WT ES - mutant ES” value [2] is given as 0.329 and the “Z-score (ES) of hit sequences” value [3] is given as 7.80 and 6.10.
For “PLFLRRKPVLSFQG [LIG3, D-site 14-mer in ELK1 Y2H prey]”, the “WT ES - mutant ES” value [2] is given as 0.487 and the “Z-score (ES) of hit sequences” value [3] is given as 10.87.
For “RLLWRRLKPLILGK [ABCA7, D-site 14-mer in ELK1 Y2H prey]”, the “WT ES - mutant ES” value [2] is listed as 0.266 and the “Z-score (ES) of hit sequences” value [3] is listed as 5.86.
In the case of “RLQERRGSNVALML [PTPN7, D-site 14-mer in ELK1 Y2H prey]”, the “WT ES - mutant ES” value [2] is given as 0.474 and the “Z-score (ES) of hit sequences” value [3] is given as 9.09.
In the case of “RLRNRNCLELKIKD [ANKRD12, D-site 14-mer in ELK1 Y2H prey]”, the “WT ES - mutant ES” value [2] is listed as 0.443 and the “Z-score (ES) of hit sequences” value [3] is listed as 10.11.
